Source: ChEMBL document CHEMBL5465560, “Selectivity Literature for EUbOPEN Chemogenomic Library” (2024)

Columns and labels:
[1] = biological target: T1, Histone-lysine N-methyltransferase NSD3 (Homo sapiens) (UniProt Q9BZ95); details: at 10 µM
T1 sequence (whole entry): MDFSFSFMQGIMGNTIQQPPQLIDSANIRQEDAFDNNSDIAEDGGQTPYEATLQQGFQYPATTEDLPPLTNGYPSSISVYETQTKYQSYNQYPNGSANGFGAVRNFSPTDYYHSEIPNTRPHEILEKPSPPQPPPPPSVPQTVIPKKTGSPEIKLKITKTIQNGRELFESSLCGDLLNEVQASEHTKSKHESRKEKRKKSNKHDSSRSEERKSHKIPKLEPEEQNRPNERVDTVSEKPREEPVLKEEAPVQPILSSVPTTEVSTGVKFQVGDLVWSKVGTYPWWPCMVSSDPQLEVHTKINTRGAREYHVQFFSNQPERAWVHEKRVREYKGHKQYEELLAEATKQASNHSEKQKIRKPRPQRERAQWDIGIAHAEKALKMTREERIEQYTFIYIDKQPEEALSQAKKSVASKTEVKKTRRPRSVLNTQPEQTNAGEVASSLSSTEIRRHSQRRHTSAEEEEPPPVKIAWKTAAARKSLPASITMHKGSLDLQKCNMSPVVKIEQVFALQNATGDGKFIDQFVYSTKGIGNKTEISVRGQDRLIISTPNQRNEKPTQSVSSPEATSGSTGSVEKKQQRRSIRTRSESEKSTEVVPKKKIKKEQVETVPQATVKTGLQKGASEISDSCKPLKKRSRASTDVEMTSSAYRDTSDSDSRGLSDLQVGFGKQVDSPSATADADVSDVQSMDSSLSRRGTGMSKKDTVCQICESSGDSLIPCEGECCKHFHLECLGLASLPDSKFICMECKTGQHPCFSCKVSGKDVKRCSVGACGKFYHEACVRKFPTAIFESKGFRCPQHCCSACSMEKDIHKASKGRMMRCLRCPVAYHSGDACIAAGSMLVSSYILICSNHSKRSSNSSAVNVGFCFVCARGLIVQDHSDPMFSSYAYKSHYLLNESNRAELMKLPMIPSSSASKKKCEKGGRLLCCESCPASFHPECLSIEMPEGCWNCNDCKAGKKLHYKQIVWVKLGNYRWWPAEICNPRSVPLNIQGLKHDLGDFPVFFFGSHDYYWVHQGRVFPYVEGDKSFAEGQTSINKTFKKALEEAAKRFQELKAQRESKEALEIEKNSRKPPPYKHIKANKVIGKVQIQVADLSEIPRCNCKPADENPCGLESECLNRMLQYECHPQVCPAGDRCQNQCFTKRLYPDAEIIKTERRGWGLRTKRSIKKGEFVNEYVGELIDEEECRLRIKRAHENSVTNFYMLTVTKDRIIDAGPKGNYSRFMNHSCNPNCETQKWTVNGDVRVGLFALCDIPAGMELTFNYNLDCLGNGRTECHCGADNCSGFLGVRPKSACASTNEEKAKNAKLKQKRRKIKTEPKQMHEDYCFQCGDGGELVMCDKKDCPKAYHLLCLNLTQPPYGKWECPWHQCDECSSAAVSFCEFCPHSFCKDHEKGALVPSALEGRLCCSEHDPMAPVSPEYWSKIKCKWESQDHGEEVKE

[2] = biological target: T2, Tyrosine-protein kinase receptor TYRO3 (Homo sapiens) (UniProt Q06418); assay: Selectivity interaction (KinomeScan (DiscoverX)) EUB0001079a TYRO3; details: at 1 µM
T2 sequence (whole entry): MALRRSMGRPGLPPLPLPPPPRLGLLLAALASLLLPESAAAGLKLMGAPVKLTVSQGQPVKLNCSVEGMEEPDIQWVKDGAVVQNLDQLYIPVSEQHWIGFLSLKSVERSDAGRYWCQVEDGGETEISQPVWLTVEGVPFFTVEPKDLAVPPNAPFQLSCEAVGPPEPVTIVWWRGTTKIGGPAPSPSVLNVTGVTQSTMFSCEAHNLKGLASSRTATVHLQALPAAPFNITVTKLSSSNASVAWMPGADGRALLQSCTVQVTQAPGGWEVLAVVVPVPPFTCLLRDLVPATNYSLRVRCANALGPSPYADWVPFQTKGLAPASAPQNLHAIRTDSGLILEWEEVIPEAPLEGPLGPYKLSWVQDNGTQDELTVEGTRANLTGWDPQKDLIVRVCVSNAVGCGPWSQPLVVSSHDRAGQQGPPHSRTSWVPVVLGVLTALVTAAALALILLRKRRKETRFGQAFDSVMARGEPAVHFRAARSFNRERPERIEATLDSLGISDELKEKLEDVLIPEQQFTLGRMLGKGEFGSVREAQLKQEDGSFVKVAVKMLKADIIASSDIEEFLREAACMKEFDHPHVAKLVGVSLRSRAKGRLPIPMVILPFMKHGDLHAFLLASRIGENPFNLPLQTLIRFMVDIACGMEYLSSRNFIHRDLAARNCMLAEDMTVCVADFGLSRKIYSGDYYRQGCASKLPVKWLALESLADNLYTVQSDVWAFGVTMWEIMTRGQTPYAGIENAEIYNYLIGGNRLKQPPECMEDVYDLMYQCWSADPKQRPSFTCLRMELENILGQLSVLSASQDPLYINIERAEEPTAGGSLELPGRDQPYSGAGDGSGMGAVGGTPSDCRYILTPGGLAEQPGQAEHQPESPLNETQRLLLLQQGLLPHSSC

[3] = biological target: Protein arginine N-methyltransferase 5 (Homo sapiens, UniProt O14744); assay: Selectivity interaction (Transferase panel (protein, RNA, and DNA methyltransferases. and EP300 (acetyltransferase))) EUB0000270b PRMT5
Sequence of Protein arginine N-methyltransferase 5 (O14744 whole entry): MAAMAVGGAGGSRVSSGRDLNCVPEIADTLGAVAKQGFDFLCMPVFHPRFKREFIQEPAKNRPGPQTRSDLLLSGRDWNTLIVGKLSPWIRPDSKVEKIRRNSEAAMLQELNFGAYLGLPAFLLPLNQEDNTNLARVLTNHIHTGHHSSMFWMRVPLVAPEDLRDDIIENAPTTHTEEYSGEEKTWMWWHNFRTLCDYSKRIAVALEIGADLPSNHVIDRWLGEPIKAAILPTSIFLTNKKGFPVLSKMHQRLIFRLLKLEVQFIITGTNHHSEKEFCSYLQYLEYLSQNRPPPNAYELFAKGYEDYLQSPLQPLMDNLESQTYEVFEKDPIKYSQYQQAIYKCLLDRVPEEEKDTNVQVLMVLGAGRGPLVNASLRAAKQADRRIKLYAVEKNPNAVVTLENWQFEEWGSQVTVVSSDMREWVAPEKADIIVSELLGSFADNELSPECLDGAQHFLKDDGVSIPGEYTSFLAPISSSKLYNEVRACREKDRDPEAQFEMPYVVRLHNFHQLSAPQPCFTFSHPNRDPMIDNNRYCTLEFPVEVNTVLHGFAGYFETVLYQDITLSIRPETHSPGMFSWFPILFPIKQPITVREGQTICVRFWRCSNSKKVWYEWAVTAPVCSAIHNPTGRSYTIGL

[4] = biological target: Transient receptor potential cation channel subfamily M member 6 (Homo sapiens) (UniProt Q9BX84); details: at 10 µM
Sequence of Transient receptor potential cation channel subfamily M member 6 (Homo sapiens) (Q9BX84 whole entry): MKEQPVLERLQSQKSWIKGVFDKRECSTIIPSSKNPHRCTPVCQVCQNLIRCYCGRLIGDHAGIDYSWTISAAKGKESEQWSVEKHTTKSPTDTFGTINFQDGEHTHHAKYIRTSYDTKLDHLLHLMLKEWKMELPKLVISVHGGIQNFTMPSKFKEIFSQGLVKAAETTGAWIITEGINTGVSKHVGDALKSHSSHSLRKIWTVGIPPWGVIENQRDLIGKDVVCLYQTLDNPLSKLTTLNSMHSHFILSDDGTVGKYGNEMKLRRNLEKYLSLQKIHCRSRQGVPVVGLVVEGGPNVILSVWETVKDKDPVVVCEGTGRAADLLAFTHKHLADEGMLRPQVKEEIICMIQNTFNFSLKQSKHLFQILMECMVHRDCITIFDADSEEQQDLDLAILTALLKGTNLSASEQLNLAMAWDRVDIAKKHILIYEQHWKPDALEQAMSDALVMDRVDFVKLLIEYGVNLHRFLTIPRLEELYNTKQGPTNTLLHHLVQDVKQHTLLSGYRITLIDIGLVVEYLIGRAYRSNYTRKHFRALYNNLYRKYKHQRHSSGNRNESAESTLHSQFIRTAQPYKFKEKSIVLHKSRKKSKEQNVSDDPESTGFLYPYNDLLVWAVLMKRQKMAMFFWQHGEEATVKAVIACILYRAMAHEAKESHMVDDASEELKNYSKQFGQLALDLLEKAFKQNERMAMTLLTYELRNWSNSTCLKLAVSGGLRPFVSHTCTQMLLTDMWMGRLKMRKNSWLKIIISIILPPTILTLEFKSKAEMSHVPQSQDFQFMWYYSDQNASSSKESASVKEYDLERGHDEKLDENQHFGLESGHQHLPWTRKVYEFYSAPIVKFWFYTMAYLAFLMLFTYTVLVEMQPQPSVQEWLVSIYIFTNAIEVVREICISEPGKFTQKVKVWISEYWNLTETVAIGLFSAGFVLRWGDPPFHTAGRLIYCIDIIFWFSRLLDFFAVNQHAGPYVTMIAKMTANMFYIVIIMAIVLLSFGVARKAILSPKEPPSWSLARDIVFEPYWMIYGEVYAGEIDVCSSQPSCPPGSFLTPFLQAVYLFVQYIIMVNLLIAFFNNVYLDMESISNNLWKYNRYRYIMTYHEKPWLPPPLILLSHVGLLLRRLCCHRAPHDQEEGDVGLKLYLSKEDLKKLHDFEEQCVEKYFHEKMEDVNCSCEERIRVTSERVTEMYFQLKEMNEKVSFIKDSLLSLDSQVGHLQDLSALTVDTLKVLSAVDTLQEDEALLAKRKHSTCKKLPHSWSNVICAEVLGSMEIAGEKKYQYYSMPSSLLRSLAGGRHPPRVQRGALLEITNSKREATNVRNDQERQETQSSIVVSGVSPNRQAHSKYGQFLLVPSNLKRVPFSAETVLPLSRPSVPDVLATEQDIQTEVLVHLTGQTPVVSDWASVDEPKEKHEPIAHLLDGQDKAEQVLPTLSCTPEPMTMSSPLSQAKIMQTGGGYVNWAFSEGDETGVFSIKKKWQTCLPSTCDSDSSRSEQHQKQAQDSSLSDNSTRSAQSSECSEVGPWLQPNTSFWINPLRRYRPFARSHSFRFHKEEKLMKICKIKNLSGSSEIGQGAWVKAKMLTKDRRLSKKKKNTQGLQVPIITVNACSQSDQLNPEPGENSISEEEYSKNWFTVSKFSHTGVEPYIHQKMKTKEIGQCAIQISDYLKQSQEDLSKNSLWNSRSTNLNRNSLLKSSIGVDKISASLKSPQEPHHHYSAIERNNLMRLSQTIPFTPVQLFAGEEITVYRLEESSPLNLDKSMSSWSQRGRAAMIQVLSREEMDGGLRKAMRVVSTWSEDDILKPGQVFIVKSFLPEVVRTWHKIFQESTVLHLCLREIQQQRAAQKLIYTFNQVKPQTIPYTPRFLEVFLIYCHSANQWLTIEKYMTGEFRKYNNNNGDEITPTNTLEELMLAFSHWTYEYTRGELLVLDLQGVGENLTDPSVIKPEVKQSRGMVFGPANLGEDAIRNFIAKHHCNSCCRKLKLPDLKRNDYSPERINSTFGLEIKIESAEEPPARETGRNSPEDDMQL

[5] = biological target: Serine/threonine-protein kinase tousled-like 2 (Homo sapiens) (UniProt Q86UE8); assay: Selectivity interaction (ActivX KiNativ screen (ex vivo kinase selectivity in human PBMCs)) EUB0001619a TLK2; type: cell-based; details: PBMC, at 1 µM
Sequence of Serine/threonine-protein kinase tousled-like 2 (Homo sapiens) (Q86UE8 whole entry, looked up): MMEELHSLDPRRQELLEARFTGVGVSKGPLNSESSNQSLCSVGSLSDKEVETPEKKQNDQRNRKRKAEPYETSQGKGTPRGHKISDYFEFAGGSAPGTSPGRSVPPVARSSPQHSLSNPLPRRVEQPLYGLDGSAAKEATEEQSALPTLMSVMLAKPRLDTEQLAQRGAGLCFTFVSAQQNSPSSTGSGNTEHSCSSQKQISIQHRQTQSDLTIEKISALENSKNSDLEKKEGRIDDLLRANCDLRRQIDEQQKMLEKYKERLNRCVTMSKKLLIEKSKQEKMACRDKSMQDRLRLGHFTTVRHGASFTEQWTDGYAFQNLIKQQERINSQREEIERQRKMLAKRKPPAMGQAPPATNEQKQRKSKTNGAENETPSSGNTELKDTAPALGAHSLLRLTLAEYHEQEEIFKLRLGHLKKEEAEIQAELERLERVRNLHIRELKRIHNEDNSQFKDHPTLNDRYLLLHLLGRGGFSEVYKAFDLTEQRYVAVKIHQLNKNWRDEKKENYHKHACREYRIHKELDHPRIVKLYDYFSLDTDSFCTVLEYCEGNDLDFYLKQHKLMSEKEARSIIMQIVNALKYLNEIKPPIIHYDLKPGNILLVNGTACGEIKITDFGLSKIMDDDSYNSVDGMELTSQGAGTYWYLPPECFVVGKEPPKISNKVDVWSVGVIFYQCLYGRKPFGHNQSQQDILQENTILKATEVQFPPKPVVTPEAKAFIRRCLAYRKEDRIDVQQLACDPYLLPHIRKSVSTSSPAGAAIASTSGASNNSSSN

[6] = biological target: Rho-associated protein kinase 2 (Homo sapiens, UniProt O75116); assay: Selectivity interaction (KinomeScan (DiscoverX)) EUB0001619a ROCK2; details: at 1 µM
Sequence of Rho-associated protein kinase 2 (O75116 whole entry, looked up): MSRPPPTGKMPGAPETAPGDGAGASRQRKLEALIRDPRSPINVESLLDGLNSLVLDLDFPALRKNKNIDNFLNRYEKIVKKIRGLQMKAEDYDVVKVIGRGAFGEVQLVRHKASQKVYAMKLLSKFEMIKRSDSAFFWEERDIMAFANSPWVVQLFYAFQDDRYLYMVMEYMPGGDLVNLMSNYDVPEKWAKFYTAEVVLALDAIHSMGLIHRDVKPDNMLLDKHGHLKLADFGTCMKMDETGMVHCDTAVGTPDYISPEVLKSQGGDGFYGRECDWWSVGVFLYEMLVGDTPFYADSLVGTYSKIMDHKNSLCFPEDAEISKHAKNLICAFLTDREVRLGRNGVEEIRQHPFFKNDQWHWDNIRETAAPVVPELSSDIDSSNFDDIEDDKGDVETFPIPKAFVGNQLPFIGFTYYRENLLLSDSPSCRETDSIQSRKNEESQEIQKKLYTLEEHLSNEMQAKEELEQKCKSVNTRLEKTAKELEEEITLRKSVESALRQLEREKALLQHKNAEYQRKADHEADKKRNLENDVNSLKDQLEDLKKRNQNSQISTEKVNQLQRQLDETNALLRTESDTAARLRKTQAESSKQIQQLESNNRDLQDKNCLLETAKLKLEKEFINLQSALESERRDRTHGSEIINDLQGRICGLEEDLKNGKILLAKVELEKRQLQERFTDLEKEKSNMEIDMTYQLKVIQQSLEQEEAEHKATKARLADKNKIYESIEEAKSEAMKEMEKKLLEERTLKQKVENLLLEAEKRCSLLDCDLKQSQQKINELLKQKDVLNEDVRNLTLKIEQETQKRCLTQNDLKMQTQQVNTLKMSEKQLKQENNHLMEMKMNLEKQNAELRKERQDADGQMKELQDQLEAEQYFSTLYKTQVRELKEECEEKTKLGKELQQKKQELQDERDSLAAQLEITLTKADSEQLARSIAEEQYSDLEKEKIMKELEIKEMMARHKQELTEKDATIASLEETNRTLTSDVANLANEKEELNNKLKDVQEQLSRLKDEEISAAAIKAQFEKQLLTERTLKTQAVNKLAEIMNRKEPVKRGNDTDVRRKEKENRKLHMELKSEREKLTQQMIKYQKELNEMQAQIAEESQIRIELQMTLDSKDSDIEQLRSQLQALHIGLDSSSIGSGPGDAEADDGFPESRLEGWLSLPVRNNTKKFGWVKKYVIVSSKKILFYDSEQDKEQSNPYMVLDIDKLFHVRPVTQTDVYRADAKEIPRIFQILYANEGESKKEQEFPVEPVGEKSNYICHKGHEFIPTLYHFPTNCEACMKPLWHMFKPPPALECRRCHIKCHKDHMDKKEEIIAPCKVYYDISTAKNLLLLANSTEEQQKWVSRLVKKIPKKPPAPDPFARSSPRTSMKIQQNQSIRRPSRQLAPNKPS

## CNCCN1CCC(c2cc(CN(C)C(=O)c3cccc(Oc4ccccc4)c3)ccn2)CC1
[1]
  % activity: > 90%

## Nc1cnc(N2CCc3cc(S(=O)(=O)Nc4c(F)cc(Cl)cc4F)cc(N4CCCC4=O)c32)nc1 [TP-020n]
[2]
  % of control: 100%

## Cc1cc(CN)cc(C)c1-c1ncn(C)c1-c1cncn1C
[3]; at 1 µM
  % activity: > 90%
[3]; at 10 µM
  % activity: > 80%

## Cc1cc([C@@H](C)Nc2ccccc2C(=O)O)c2nc(N3CCOCC3)cc(=O)n2c1 [AZD-6482]
[4]
  % of control: 100%

## N#Cc1cccc(-c2c[nH]c3ncnc(N4CCOCC4)c23)c1
[5]
  % of inhibition: -21%
[6]
  % of control: 75%
